US10335409B2 (priority 2012, dated 2019)
Like-named read-outs stand apart in the source and are kept apart here.

Tests used:
Format in all cases: cell-based, hepatitis C virus
[1] = test system: genotype 1b NS3/4a protease inhibitor resistant variant D168A transient HCV replicon in Huh-7-derived cells; assay: Transient-transfected HCV replicon EC50, genotype 1b D168A; conditions: Hepatitis C virus, 72 h, read-out: EC50 1B D168A, transient-transfected replicon genotype 1b D168A resistant variant, 72 h
[2] = test system: genotype 3a (S52) stable HCV replicon in Huh-7-derived cells; assay: Stable subgenomic HCV replicon EC50, genotype 3a (Renilla luciferase); conditions: Hepatitis C virus, 72 h, read-out: EC50 3A RLUC
Protocol: (§1) Antiviral potency (EC50) was determined in both stable subgenomic HCV replicon cell lines and transient-transfected HCV replicon cells. The term half maximal effective concentration (EC50) refers to the concentration of a drug which induces a response halfway between the baseline and maximum after the exposure time specified below.
(§2) Stable subgenomic HCV replicons for genotype 1a, 1b, 2a, 3a, and 4a were established in Huh-7-derived cells as described by Lohmann et al (Lohmann V, Korner F, Koch J, et al Replication of subgenomic hepatitis C virus RNAs in a hepatoma cell line. Science 1999; 285:119-3) Each stable cell line contains a bicistronic HCV replicon that encodes a humanized Renilla luciferase (hRLuc) reporter gene fused to a selectable neomycin-resistance gene, followed by an EMCV IRES and the NS3-NS5B coding region of HCV. […] Luciferase activity was measured as a marker for intracellular HCV replication levels.
(§3) The genotype 1a stable replicon was derived from the H77 HCV strain and contained adaptive mutations P1496L and S2204I. The genotype 1b stable replicon was derived from the Con1 HCV strain and contained adaptive mutations E1202G, T1280I and K1846T. […] The genotype 3a stable replicon was derived from the S52 HCV strain and contained adaptive mutations P1121L, A1198T and S2210I (equivalent to S2204I in genotype 1). The genotype 4a stable replicon was derived from the ED43 HCV strain and contained adaptive mutations Q1691R and S2204I. All replicon cell lines were propagated in Huh-7-derived cells and maintained in Dulbecco's modified Eagle's Medium (DMEM) supplemented with 10% fetal bovine serum (FBS) and 0.5 mg/mL G418.
(§4) To perform EC50 assays, cells from each HCV replicon were dispensed into 384-well plates. Compounds were dissolved in DMSO at a concentration of 10 mM and diluted in DMSO using an automated pipetting instrument. Three-fold serially diluted compounds were directly added to the cells using an automated instrument. […] Seventy-two hours later, cells were lysed and Renilla luciferase activity were quantified as recommended by the manufacturer (Promega-Madison, Wis.). Non-linear regression was performed to calculate EC50 values.

[3] = test system: genotype 1a (H77) stable HCV replicon in Huh-7-derived cells; assay: Stable subgenomic HCV replicon EC50, genotype 1a (Renilla luciferase); conditions: Hepatitis C virus, stable replicon genotype 1a, 72 h, read-out: EC50 1A RLUC
Protocol: as §1, §2, §3, §4

[4] = test system: genotype 1a (H77) wild type transient HCV replicon in Huh-7-derived cells; assay: Transient-transfected HCV replicon EC50, genotype 1a wild type; conditions: Hepatitis C virus, 72 h, read-out: EC50 1A WT
[5] = test system: genotype 4a (ED43) stable HCV replicon in Huh-7-derived cells; assay: Stable subgenomic HCV replicon EC50, genotype 4a (Renilla luciferase); conditions: Hepatitis C virus, 72 h, read-out: EC50 4A RLUC
Protocol: as §1, §2, §3, §4

[6] = test system: genotype 1a NS3/4a protease inhibitor resistant variant R155K transient HCV replicon in Huh-7-derived cells; assay: Transient-transfected HCV replicon EC50, genotype 1a R155K; conditions: Hepatitis C virus, 72 h, read-out: EC50 1A R155K, transient-transfected replicon genotype 1a R155K resistant variant, 72 h
[7] = test system: genotype 1b (Con1) stable HCV replicon in Huh-7-derived cells; assay: Stable subgenomic HCV replicon EC50, genotype 1b (Renilla luciferase); conditions: Hepatitis C virus, stable replicon genotype 1b, 72 h, read-out: EC50 1B RLUC
Protocol: as §1, §2, §3, §4

[8] = test system: genotype 3a (S52) wild type transient HCV replicon in Huh-7-derived cells; assay: Transient-transfected HCV replicon EC50, genotype 3a wild type; conditions: Hepatitis C virus, 72 h, read-out: EC50 3A WT
[9] = test system: genotype 1b (Con1) wild type transient HCV replicon in Huh-7-derived cells; assay: Transient-transfected HCV replicon EC50, genotype 1b wild type; conditions: Hepatitis C virus, 72 h, read-out: EC50 1B WT
[10] = test system: genotype 2a (JFH-1) stable HCV replicon in Huh-7-derived cells; assay: Stable subgenomic HCV replicon EC50, genotype 2a (Renilla luciferase); conditions: Hepatitis C virus, stable replicon genotype 2a, 72 h, read-out: EC50 2A RLUC
Protocol: as §1, §2, §3, §4

[11] = transient-transfected replicon genotype 1a wild type
[12] = transient-transfected replicon genotype 3a wild type
[13] = transient-transfected replicon genotype 1b wild type

Compound	EC50 [1] [nM]	EC50 [2] [nM]	EC50 [3] [nM]	EC50 [4, 11] [nM]	EC50 [5] [nM]	EC50 [6] [nM]	EC50 [7] [nM]	EC50 [8, 12] [nM]	EC50 [9, 13] [nM]	EC50 [10] [nM]	EC50 [4] [nM]	EC50 [8] [nM]	EC50 [9] [nM]
CC[C@@H]1[C@@H]2CN(C(=O)[C@H](C(C)(C)C)NC(=O)O[C@@H]3C[C@H]3CCCCCc3nc4ccc(OC)cc4nc3O2)[C@@H]1C(=O)N[C@]1(C(=O)NS(=O)(=O)C2(C)CC2)C[C@H]1CC [Example 4, (1aR,5S,8S,9S,10R,22aR)-5-tert-butyl-9-ethyl-N-[(1R,2R)-2-ethyl-1-{[(1-methylcyclopropyl)sulfonyl]carbamoyl}cyclopropyl]-14-methoxy-3,6-dioxo-1,1a,3,4,5,6,9,10,18,19,20,21,22,22a-tetradecahydro-8H-7,10-methanocyclopropa[18,19][1,10,3,6]dioxadiazacyclononadecino[11,12-b]quinoxaline-8-carboxamide]	66	271	10.7	7.1	7.9	20	9.6	68	6.5	16	–	–	–
CC[C@@H]1[C@@H]2CN(C(=O)[C@H](C(C)(C)C)NC(=O)O[C@@H]3C[C@H]3CCCCC(F)(F)c3nc4ccc(OC)cc4nc3O2)[C@@H]1C(=O)N[C@]1(C(=O)NS(=O)(=O)C2CC2)C[C@H]1CC [Example 34, (1aR,5S,8S,9S,10R,22aR)-5-tert-butyl-N-{(1R,2R)-1-[(cyclopropylsulfonyl)carbamoyl]-2-ethylcyclopropyl}-9-ethyl-18,18-difluoro-14-methoxy-3,6-dioxo-1,1a,3,4,5,6,9,10,18,19,20,21,22,22a-tetradecahydro-8H-7,10-methanocyclopropa[18,19][1,10,3,6]dioxadiazacyclononadecino[11,12-b]quinoxaline-8-carboxamide]	64	322	12	15	9.7	18	13	46	9	18	–	–	–
CC[C@@H]1[C@@H]2CN(C(=O)[C@H](C(C)(C)C)NC(=O)O[C@@H]3C[C@H]3CCCCC(F)(F)c3nc4ccc(OC)cc4nc3O2)[C@@H]1C(=O)N[C@]1(C(=O)NS(=O)(=O)C2(C)CC2)C[C@H]1CC(F)F [Example 35, (1aR,5S,8S,9S,10R,22aR)-5-tert-butyl-N-[(1R,2S)-2-(2,2-difluoroethyl)-1-{[(1-methylcyclopropyl)sulfonyl]carbamoyl}cyclopropyl]-9-ethyl-18,18-difluoro-14-methoxy-3,6-dioxo-1,1a,3,4,5,6,9,10,18,19,20,21,22,22a-tetradecahydro-8H-7,10-methanocyclopropa[18,19][1,10,3,6]dioxadiazacyclononadecino[11,12-b]quinoxaline-8-carboxamide]	38	162	9.1	12	7.6	17	11	35	10	7.4	–	–	–
CC[C@@H]1[C@@H]2CN(C(=O)[C@H](C(C)(C)C)NC(=O)O[C@@H]3[C@H]4CC[C@H](C4)[C@H]3CCCCCc3nc4ccc(OC)cc4nc3O2)[C@@H]1C(=O)N[C@]1(C(=O)NS(=O)(=O)C2(C)CC2)C[C@H]1C(F)F [Example 37, (1R,4S,4aR,8S,11 S, 12S,13R,25aR)-8-tert-butyl-N-[(1R,2R)-2-(difluoromethyl)-1-{[(1-methylcyclopropyl)sulfonyl]carbamoyl}cyclopropyl]-12-ethyl-17-methoxy-6,9-dioxo-2,3,4,4a,6,7,8,9,12,13,21,22,23,24,25,25a-hexadecahydro-1H,11H-1,4:10,13-dimethanoquinoxalino[2,3-k][1,10,3,6]benzodioxadiazacyclononadecine-11-carboxamide]	159	575	24	29	15	51	22	69	22	16	–	–	–
CC[C@@H]1[C@@H]2CN(C(=O)[C@H](C(C)(C)C)NC(=O)O[C@]3(C)CCC[C@H]3CCCCCc3nc4ccc(OC)cc4nc3O2)[C@@H]1C(=O)N[C@]1(C(=O)NS(=O)(=O)C2CC2)C[C@H]1C(F)F [Example 40, (3aR,7S,10S,11S,12R,24aR)-7-tert-butyl-N-[(1R,2R)-1-[(cyclopropylsulfonyl)carbamoyl]-2-(difluoromethyl)cyclopropyl]-11-ethyl-16-methoxy-3a-methyl-5,8-dioxo-1,2,3,3a,5,6,7,8,11,12,20,21,22,23,24,24a-hexadecahydro-10H-9,12-methanocyclopenta[18,19][1,10,3,6]dioxadiazacyclononadecino[11,12-b]quinoxaline-10-carboxamide]	129	360	25	17	18	74	22	156	8.6	48	–	–	–
CC[C@@H]1[C@@H]2CN(C(=O)[C@H](C(C)(C)C)NC(=O)O[C@]3(C)CCC[C@H]3CCCCCc3nc4ccc(OC)cc4nc3O2)[C@@H]1C(=O)N[C@]1(C(=O)NS(=O)(=O)C2(C)CC2)C[C@H]1CC(F)F [Example 41, (3aR,7S,10S,11S,12R,24aR)-7-tert-butyl-N-[(1R,2S)-2-(2,2-difluoroethyl)-1-{[(1-methylcyclopropyl)sulfonyl]carbamoyl}cyclopropyl]-11-ethyl-16-methoxy-3a-methyl-5,8-dioxo-1,2,3,3a,5,6,7,8,11,12,20,21,22,23,24,24a-hexadecahydro-10H-9,12-methanocyclopenta[18,19][1,10,3,6]dioxadiazacyclononadecino[11,12-b]quinoxaline-10-carboxamide]	715	2610	135	164	135	505	142	539	154	106	–	–	–
C=C[C@@H]1C[C@]1(NC(=O)[C@@H]1[C@H](C)[C@@H]2CN1C(=O)[C@H](C(C)(C)C)NC(=O)O[C@@H]1C[C@H]1CCCCCc1nc3ccc(OC)cc3nc1O2)C(=O)NS(=O)(=O)C1CC1 [Example 48, (1aR,5S,8S,9S,10R,22aR)-5-tert-butyl-N-{(1R,2S)-1-[(cyclopropylsulfonyl)carbamoyl]-2-ethenylcyclopropyl}-14-methoxy-9-methyl-3,6-dioxo-1,1a,3,4,5,6,9,10,18,19,20,21,22,22a-tetradecahydro-8H-7,10-methanocyclopropa[18,19][1,10,3,6]dioxadiazacyclononadecino[11,12-b]quinoxaline-8-carboxamide]	6.5	73	2	–	2.2	4	1.8	–	–	9.7	1.7	13	1.1
